Measurements: ChEMBL document CHEMBL5634173, “Identification of a novel histone H2A mono-ubiquitination-inhibiting cell-active small molecule” (Bioorg Med Chem Lett, 2024)
Active and inactive are the calls of the source. The calls are words filed in the database; no cut-off is given here.

Experiments:
U2OS [1] = experiment: Antiproliferative activity against human U2OS cells assessed as reduction in cell viability at 30 uM incubated for 72 hrs; format: functional, cell-based
U2OS [2] = experiment: Antiproliferative activity against human U2OS cells assessed as reduction in cell viability incubated for 72 hrs; format: functional, cell-based
U2OS [3] = experiment: Antiproliferative activity against human U2OS cells assessed as reduction in cell viability at 50 uM incubated for 72 hrs; format: functional, cell-based
U2OS [4] = experiment: Inhibition of histone H2A ubiquitination at K119 residue in human U2OS cells assessed as decrease in H2AK119ub1 level incubated for 1 hr by Western blotting analysis; format: cell-based; details: dose 24-96 µM
U2OS [5] = experiment: Antiproliferative activity against human U2OS cells assessed as reduction in cell viability at 30 uM incubated for 72 hrs relative to control; format: functional

For `COc1cccc(C=C2C(=O)c3ccccc3C2=O)c1`, the Activity (U2OS [1]) was “inactive”.
`Cc1cccc(C)c1C=C1C(=O)c2ccccc2C1=O` was tested, and the Activity (U2OS [1]) was “inactive”.
In the case of `O=C1C(=Cc2ccccc2[N+](=O)[O-])C(=O)c2ccccc21`, the IC50 (U2OS [2]) is reported as 39.6 µM and the Activity (U2OS [1]) is reported as “Active”.
In the case of `COc1ccccc1C=C1C(=O)c2ccccc2C1=O`, the Activity (U2OS [1]) is reported as “inactive”.
In the case of `N#Cc1cccc(C=C2C(=O)c3ccccc3C2=O)c1`, the IC50 (U2OS [2]) is reported as 32.1 µM.
`Cc1cccc(C=C2C(=O)c3ccccc3C2=O)c1` was tested, and the Activity (U2OS [1]) was “inactive”.
In the case of `Cc1ccccc1C=C1C(=O)c2ccccc2C1=O`, the Activity (U2OS [1]) is reported as “inactive”.
For `O=C1C(=Cc2ccc([N+](=O)[O-])cc2)C(=O)c2ccccc21`, the IC50 (U2OS [2]) was 33.5 µM and the Activity (U2OS [1]) was “Active”.
In the case of `O=C1C(=Cc2cccnc2)C(=O)c2ccccc21`, the Activity (U2OS [3]) is reported as “Active”, the Activity (U2OS [2]) is reported as “Dose-Dependent Effect” and the IC50 (U2OS [2]) is reported as 45.2 µM.
For `O=C1C(=Cc2cccc(F)c2)C(=O)c2ccccc21`, the Activity (U2OS [1]) was “inactive”.
With `O=C1C(=Cc2ccc([N+](=O)[O-])cc2[N+](=O)[O-])C(=O)c2ccccc21` the IC50 (U2OS [2]) was 24 µM.
With `O=C1C(=Cc2ccccc2)C(=O)c2ccccc21` the Activity (U2OS [1]) was “inactive”.
In the case of `Cc1ccc(C=C2C(=O)c3ccccc3C2=O)cc1`, the Activity (U2OS [1]) is reported as “inactive”.
With `O=C1C(=Cc2c([N+](=O)[O-])cccc2[N+](=O)[O-])C(=O)c2ccccc21` the inhibition (U2OS [4]) was “Dose-Dependent Effect”, the Activity (U2OS [5]) was 100% and the IC50 (U2OS [2]) was 5.86 µM.
For `CCc1c(-c2cccc3[nH]ccc23)[nH]c(C(=O)O)c1-c1ccccc1Cl`, the Activity (U2OS [3]) was “inactive”.
`O=C1C(=Cc2cccc([N+](=O)[O-])c2)C(=O)c2ccccc21` was tested, and the IC50 (U2OS [2]) was 24 µM and the Activity (U2OS [1]) was “Active”.
In the case of `COc1ccc(C=C2C(=O)c3ccccc3C2=O)cc1`, the Activity (U2OS [1]) is reported as “inactive”.
